Results taken from ChEMBL document CHEMBL1128938, “Evaluation of furofuran as a P2 ligand for symmetry-based HIV protease inhibitors” (Bioorg Med Chem Lett, 1996).

What was measured:
[1] = biological target: Human immunodeficiency virus type 1 protease (Human immunodeficiency virus 1) (UniProt Q72874); assay: Tested for its inhibition against HIV protease at a concentration of 0.5 nM.
MT4 [2] = assay: Cytotoxicity in MT-4 cells using cytopathicity assay.; format: functional, Homo sapiens
MT4 [3] = assay: Tested for its anti-HIV activity in MT-4 cells.; format: functional, cell-based; conditions: Homo sapiens
MT4 [4] = assay: Tested for its anti-HIV activity in MT-4 cells in the presence of 50% human serum.; format: functional, cell-based
[5] = AUC value after oral dose at a dose of 10 mg/kg in rats.; format: ADME, organism-based; set-up: dose 10 mg/kg, route oral; conditions: rat, plasma
[6] = Oral bioavailability in rat (dose 10 mg/kg p.o.); format: ADME, organism-based; conditions: in vivo
[7] = Half-life value after IV dose at a dose of 5 mg/kg in rats.; format: ADME, organism-based; set-up: dose 5 mg/kg, route intravenous; conditions: rat, in vivo
[8] = Cmax value after oral dose at a dose of 10 mg/kg in rats.; format: ADME, organism-based; set-up: dose 10 mg/kg, route oral; conditions: rat, in vivo
[9] = Tmax value after oral dose at a dose of 10 mg/kg in rats.; format: ADME, organism-based; set-up: dose 10 mg/kg, route oral; conditions: rat, in vivo
[10] = AUC value after IV dose at a dose of 5 mg/kg in rats.; format: ADME, organism-based; set-up: dose 5 mg/kg, route intravenous; conditions: rat, plasma
[11] = biological target: Human immunodeficiency virus type 1 protease (Human immunodeficiency virus 1) (UniProt Q72874); assay: Compound was tested for its inhibition against HIV protease at a concentration of 4 nM.

Q: Which inhibition [1] does the source give for `CC(C)(C)OC(=O)N[C@@H](Cc1ccccc1)C[C@H](O)[C@H](Cc1ccccc1)NC(=O)OC1COC2OCCC12` (stereo partly drawn) here?
A: 49%

Q: And the CCIC50 (MT4 [2])?
A: 56 µM

Q: What about the EC50 (MT4 [3]) of the same compound?
A: 200 nM

Q: And the EC50 (MT4 [4])?
A: 200 nM

Q: For `O=C(N[C@@H](Cc1ccccc1)C[C@H](O)[C@H](Cc1ccccc1)NC(=O)O[C@@H]1COC2OCCC21)O[C@H]1COC2OCCC21` (stereo partly drawn), which inhibition [1] is on record?
A: 73%

Q: What about the CCIC50 (MT4 [2]) of the same compound?
A: >100 µM

Q: And the EC50 (MT4 [3])?
A: 107 nM

Q: What about the EC50 (MT4 [4]) of the same compound?
A: 197 nM

Q: Which results are given for `CC(C)c1nc(CN(C)C(=O)N[C@H](C(=O)N[C@@H](Cc2ccccc2)C[C@H](O)[C@H](Cc2ccccc2)NC(=O)OCc2cncs2)C(C)C)cs1` [RITONAVIR]?
A: inhibition [1]: 78%; CCIC50 (MT4 [2]): 56 µM; EC50 (MT4 [3]): 70 nM; EC50 (MT4 [4]): 810 nM

Q: With `O=C(N[C@@H](Cc1ccccc1)C[C@H](O)[C@H](Cc1ccccc1)NC(=O)O[C@H]1COC2OCCC21)Oc1cncs1` (stereo partly drawn) as the compound, how does the AUC [5] read?
A: 1890 ng·h/mL

Q: And the bioavailability [6]?
A: 41.1%

Q: What about the half-life [7] of the same compound?
A: 41.4 min

Q: And the inhibition [1]?
A: 53%

Q: What about the CCIC50 (MT4 [2]) of the same compound?
A: >100 µM

Q: What about the EC50 (MT4 [3]) of the same compound?
A: 140 nM

Q: What about the Cmax [8] of the same compound?
A: 1120 ng/mL

Q: And the Tmax [9]?
A: 30 min

Q: And the AUC [10]?
A: 2300 ng·h/mL

Q: What about the EC50 (MT4 [4]) of the same compound?
A: 290 nM

Q: For `CC(C)(C)OC(=O)N[C@@H](Cc1ccccc1)C[C@H](O)[C@H](Cc1ccccc1)NC(=O)O[C@@H]1COC2OCCC21` (stereo partly drawn), which inhibition [1] is on record?
A: 45%

Q: And the CCIC50 (MT4 [2])?
A: >100 µM

Q: What about the EC50 (MT4 [3]) of the same compound?
A: 1040 nM

Q: What about the EC50 (MT4 [4]) of the same compound?
A: 4730 nM

Q: With `O=C(N[C@@H](Cc1ccccc1)[C@@H](O)C[C@H](Cc1ccccc1)NC(=O)OC1COC2OCCC12)Oc1cncs1` (stereo partly drawn) as the compound, how does the inhibition [1] read?
A: 52%

Q: And the CCIC50 (MT4 [2])?
A: >100 µM

Q: And the EC50 (MT4 [3])?
A: 428 nM

Q: What about the EC50 (MT4 [4]) of the same compound?
A: 774 nM

Q: For `O=C(N[C@@H](Cc1ccccc1)C[C@H](O)[C@H](Cc1ccccc1)NC(=O)O[C@@H]1COC2OCCC21)O[C@@H]1COC2OCCC21` (stereo partly drawn), which CCIC50 (MT4 [2]) is on record?
A: >100 µM

Q: And the EC50 (MT4 [3])?
A: 3680 nM

Q: And the inhibition [11]?
A: 50%

Q: And the EC50 (MT4 [4])?
A: 4180 nM

Q: For `O=C(N[C@@H](Cc1ccccc1)[C@@H](O)C[C@H](Cc1ccccc1)NC(=O)O[C@@H]1COC2OCCC21)O[C@H]1COC2OCCC21` (stereo partly drawn), which inhibition [1] is on record?
A: 39%

Q: What about the CCIC50 (MT4 [2]) of the same compound?
A: >100 µM

Q: And the EC50 (MT4 [3])?
A: 891 nM

Q: What about the EC50 (MT4 [4]) of the same compound?
A: 1920 nM

Q: Which results are given for `O=C(N[C@@H](Cc1ccccc1)C[C@H](O)[C@H](Cc1ccccc1)NC(=O)OC1COC2OCCC12)OC1COC2OCCC12` (stereo partly drawn)?
A: inhibition [1]: 53%; CCIC50 (MT4 [2]): >100 µM; EC50 (MT4 [3]): 71 nM; EC50 (MT4 [4]): 77 nM

Q: Which results are given for `CC(C)(C)OC(=O)N[C@@H](Cc1ccccc1)C[C@H](O)[C@H](Cc1ccccc1)NC(=O)O[C@H]1COC2OCCC21` (stereo partly drawn)?
A: inhibition [1]: 63%; CCIC50 (MT4 [2]): 69 µM; EC50 (MT4 [3]): 180 nM

Q: Which inhibition [1] does the source give for `O=C(N[C@@H](Cc1ccccc1)C[C@H](O)[C@H](Cc1ccccc1)NC(=O)O[C@H]1COC2OCCC21)O[C@H]1COC2OCCC21` (stereo partly drawn) here?
A: 64%

Q: What about the CCIC50 (MT4 [2]) of the same compound?
A: >100 µM

Q: What about the EC50 (MT4 [3]) of the same compound?
A: 34 nM

Q: And the EC50 (MT4 [4])?
A: 115 nM

Q: Which results are given for `O=C(N[C@@H](Cc1ccccc1)C[C@H](O)[C@H](Cc1ccccc1)NC(=O)OC1COC2OCCC12)Oc1cncs1` (stereo partly drawn)?
A: inhibition [1]: 43%; CCIC50 (MT4 [2]): >100 µM; EC50 (MT4 [3]): 502 nM; EC50 (MT4 [4]): 1200 nM
